Measurements published in US8022051B2, “Composition for protection and improvement of skin, or reinforcing skin barrier function comprising phosphatidylserine” (Doosan Corporation, priority 2004, dated 2011).

Molecular target: T1, PPAR-γ (Homo sapiens, UniProt P37231)
T1 construct: expressed in transfected cells; host or cells: HeLa (KCLB No. 10002)
T1 sequence (P37231 1-505): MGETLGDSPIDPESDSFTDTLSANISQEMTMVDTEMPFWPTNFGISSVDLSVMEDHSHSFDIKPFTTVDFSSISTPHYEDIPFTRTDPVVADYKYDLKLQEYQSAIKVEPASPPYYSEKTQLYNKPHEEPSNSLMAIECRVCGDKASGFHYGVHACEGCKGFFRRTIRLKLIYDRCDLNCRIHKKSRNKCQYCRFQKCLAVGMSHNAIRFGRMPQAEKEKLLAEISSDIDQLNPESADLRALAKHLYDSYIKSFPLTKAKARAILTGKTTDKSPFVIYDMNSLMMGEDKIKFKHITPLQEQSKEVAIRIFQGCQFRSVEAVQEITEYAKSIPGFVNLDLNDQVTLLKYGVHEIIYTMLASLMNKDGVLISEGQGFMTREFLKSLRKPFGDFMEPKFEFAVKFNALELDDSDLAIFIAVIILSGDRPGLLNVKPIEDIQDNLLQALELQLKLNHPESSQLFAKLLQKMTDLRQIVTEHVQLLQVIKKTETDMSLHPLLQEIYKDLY
Assay: PPAR-γ activation in HeLa cell line (luciferase reporter)
Assay type: cell-based
Conditions: 10 and 50 μM; FIG. 7
Method: In order to examine a PPAR-a activating effect of the phosphatidylserine of the invention, a following experiment was performed. At this time, it was examined activities for the PPAR-a and PPAR-γ retained.
First, a HeLa (Human epithelial carcinoma) (KCLB [Korean Cell Line Bank] No. 10002, Korea) was seeded to a 24-well plate in an amount of 2×10^4 cells/well and then cultured for a day. Next day, in order to perform a cell transfection, 200 ng of PPAR-a over-expression vector, 200 ng of PPRE (peculiar to PPAR-a)-luciferase reporter vector (Promega, USA), and 40 ng of renilla luciferase vector used as the control group in the cell (internal control, i.e., used to examine an transfection efficiency) were mixed in the OMEM (Gibco, USA) culture medium and subject to the transfection to the cell using the lipofectamin (Invitrogen, USA). After four hours, the culture medium was added to be 10% FBS and then cultured for one night. […] An activity of the luciferase was measured with a luminometer using a dual luciferase assay system (Promega, USA). Also in case of PPAR-γ, the same process was performed to measure the activity. At this time, in case of measuring the activity of PPAR-γ, 10 and 50 μM of phosphatidylserine and 50 μM of cyglitazone (Sigma, USA) as the positive control group were treated. […]

phosphatidylserine
activity of PPAR-γ (luciferase): had no influence
